{"source": "patent US20250120988A1", "about": "“SMALL MOLECULE COMPOUND FOR TREATING ISCHEMIC STROKE, ITS PREPARATION METHOD, AND APPLICATION” (SHANGHAI SIXTH PEOPLE'S HOSPITAL, priority 2023, published 2025)", "system": "MCAO model", "assay": "MCAO cerebral ischemia model, cerebral infarction volume (TTC staining)", "assay_type": "in vivo, mice", "details": "30 mg/kg intraperitoneal; MCAO 30 minutes, 24 hours after ischemia", "experimental": "Figure a illustrates the TTC staining results of brain slices obtained from animals sacrificed 24 hours after different drug treatments following MCAO ischemia for 30 minutes. The dark areas represent normal brain tissue, while the white areas represent infarcted brain tissue. CGS19755 was administered at a concentration of 1 mg/kg (intraperitoneal injection), PcTX-1 was administered at a concentration of 100 ng/kg (ASIC1a blocker, intranasal drip), LK-2 was administered at concentrations of 10 mg/kg or 30 mg/kg (intraperitoneal injection), and Saline was used as the control group. […] The specific steps are as follows: a transient focal ischemic model was formed by occluding the middle cerebral artery for 30 minutes in wild-type or ASIC1a gene knockout mice. The animals were anesthetized using the animal anesthesia machine (RWD). During the induction of anesthesia, the animals are placed in a transparent chamber (15×25×30 cm) containing 2% isoflurane. During the MCAO procedure, the animals are worn a mask delivering 1% isoflurane. Complete occlusion of the middle cerebral artery was confirmed using continuous laser Doppler blood flow measurement (Moor, FLPI-2). Animals with less than 50% reduction in blood flow during MCAO were excluded. […] In this test, mice were placed on the rotating rod and the time to fall was recorded. […]", "data": [{"smiles": "O=C(O)C1CN(C(c2ccccc2)P(=O)(O)O)CCN1", "note": "(stereo not shown) [LK-2]", "values": [{"measurement": "reduction of volume of cerebral infarction", "result": 52.8, "unit": "%"}]}]}
